Reference: paper PMC7434514 (ChemMedChem, 2020)
Values joined by “and” are separate entries in the source; they are usually repeats but may differ in a detail not shown here. Equal values may be shown once.

Experiments:
NDM-1 [1] = settings: read-out: IC50 against NDM-1; ref 19e, 20; cited from earlier work
[2] = test system: NDM-1 expressing Klebsiella pneumoniae; settings: mouse infected with NDM-1 expressing Klebsiella pneumoniae; ref 19e, 20; cited from earlier work
NDM-1 [3] = target: T1, NDM-1 (Klebsiella pneumoniae, UniProt C7C422); assay: biochemical; settings: for Percent Inhibition against NDM-1: meropenem substrate
Target sequence in this assay (C7C422 36-270): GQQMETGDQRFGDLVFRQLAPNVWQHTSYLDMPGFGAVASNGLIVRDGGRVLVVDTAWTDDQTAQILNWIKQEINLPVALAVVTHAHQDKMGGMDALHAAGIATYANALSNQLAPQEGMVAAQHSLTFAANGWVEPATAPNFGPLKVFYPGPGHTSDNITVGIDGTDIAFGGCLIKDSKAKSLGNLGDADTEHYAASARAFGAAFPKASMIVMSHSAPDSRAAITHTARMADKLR

NDM-1 [4] = target: T1, NDM-1; type: binding; settings: 5 μM NDM-1, 200 μM inhibitor; native NDM-1 TM = 55.95±0.06 °C
Target sequence in this assay (C7C422 29-270, looked up): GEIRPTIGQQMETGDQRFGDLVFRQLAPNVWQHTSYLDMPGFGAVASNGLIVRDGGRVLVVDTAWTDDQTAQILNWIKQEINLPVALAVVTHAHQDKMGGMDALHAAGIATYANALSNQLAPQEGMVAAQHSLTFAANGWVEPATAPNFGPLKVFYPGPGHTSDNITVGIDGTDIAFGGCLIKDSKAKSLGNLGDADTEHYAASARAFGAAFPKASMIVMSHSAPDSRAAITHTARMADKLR

NDM-1 [5] = target: T1, NDM-1; type: binding; settings: NDM-1 10 μM, inhibitor 50 μM, approximately 5 min incubation
Target sequence in this assay (C7C422 37-270 limits assumed): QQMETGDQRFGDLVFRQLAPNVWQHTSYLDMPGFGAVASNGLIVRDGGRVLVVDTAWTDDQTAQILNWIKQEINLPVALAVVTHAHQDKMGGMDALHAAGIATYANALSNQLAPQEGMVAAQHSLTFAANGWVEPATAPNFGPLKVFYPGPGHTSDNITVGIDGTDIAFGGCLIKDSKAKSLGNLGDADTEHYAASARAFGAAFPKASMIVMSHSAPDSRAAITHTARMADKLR

VIM-2 = VIM-2 (Escherichia coli, UniProt Q5U7L7); type: binding; settings: VIM-2 10 μM, inhibitor 50 μM, approximately 5 min incubation
[6] = read-out: Kd for Zn(II) ions; cited from earlier work
[7] = read-out: Percent Inhibition against NDM-1

Compound: N[C@H](CN[C@H](CN[C@@H](CC(=O)O)C(=O)O)C(=O)O)C(=O)O [AMA, Aspergillomarasmine A]
- IC50 (NDM-1 [1]): 4 to 7 µM
- ability to restore meropenem activity in vivo [2]: restore meropenem activity

Compound: CN(CC(=O)O)CC(=O)O [Compound 1]
- Percent Inhibition against NDM-1 (NDM-1 [3]; compound at 200 μM): 80%
- Percent Inhibition against NDM-1 (NDM-1 [3]; compound at 250 μM): 90%
- ∆Tm (NDM-1 [4]): 1.9±0.2 °C
- Complex observed by native ESI-MS (NDM-1 [5]): 2Zn: NDM-1:1
- Complex observed by native ESI-MS (VIM-2): 2Zn: VIM-2:1

Compound: O=C(O)CN(CC(=O)O)Cc1ccccc1 [Compound 11]
- Percent Inhibition against NDM-1 (NDM-1 [3]; compound at 250 μM): 65%

Compound: CN(CCC(=O)O)CC(=O)O [Compound 13a, 3-((Carboxymethyl)(methyl)amino)propanoic acid]
- Percent Inhibition against NDM-1 (NDM-1 [3]; compound at 250 μM): complete loss of activity

Compound: O=C(O)CCN(CC(=O)O)Cc1ccccc1 [Compound 13b, 3-(Benzyl(carboxymethyl)amino)propanoic acid]
- Percent Inhibition against NDM-1 (NDM-1 [3]; compound at 250 μM): complete loss of activity

Compound: O=C(O)CN(CCP(=O)(O)O)Cc1ccccc1 [Compound 15, N-Benzyl-N-(2-phosphonoethyl)glycine]
- Percent Inhibition against NDM-1 (NDM-1 [3]; compound at 250 μM): no inhibition

Compound: O=C(O)CN(Cc1ccccc1)Cc1nnn[nH]1 [Compound 17, N-((1H-tetrazol-5-yl)methyl)-N-benzylglycine]
- Percent Inhibition against NDM-1 (NDM-1 [3]; compound at 250 μM): comparable to that of 11

Compound: O=C(O)CN(CCc1ccccc1)CC(=O)O [Compound 21a, 2,2’-(Phenethylazanediyl)diacetic acid]
- inhibition at 250 µM (NDM-1 [3]; [7]): 56 to 76%

Compound: O=C(O)CN(CC(=O)O)Cc1ccc(-c2ccccc2)cc1 [Compound 21b, 2,2’-(([1,1’-Biphenyl]-4-ylmethyl)azanediyl)diacetic acid]
- inhibition at 250 µM (NDM-1 [3]; [7]): 56 to 76%

Compound: O=C(O)CN(CC(=O)O)Cc1cccc(-c2ccccc2)c1 [Compound 21c, 2,2’-(([1,1’-Biphenyl]-3-ylmethyl)azanediyl)diacetic acid]
- inhibition at 250 µM (NDM-1 [3]; [7]): 56 to 76%

Compound: O=C(O)CN(CC(=O)O)Cc1ccsc1 [Compound 21h, 2,2’-((Thiophen-3-ylmethyl)azanediyl)diacetic acid]
- inhibition at 250 µM (NDM-1 [3]; [7]): 64%

Compound: O=C(O)CN(CC(=O)O)Cc1ccoc1 [Compound 21i, 2,2’-((Furan-3-ylmethyl)azanediyl)diacetic acid]
- inhibition at 250 µM (NDM-1 [3]; [7]): ~99%
- ∆Tm (NDM-1 [4]): 3.4±0.3 °C

Compound: O=C(O)CN(CC(=O)O)S(=O)(=O)c1ccccc1 [Compound 21j, 2,2’-((Phenylsulfonyl)azanediyl)diacetic acid]
- Percent Inhibition against NDM-1 (NDM-1 [3]; compound at 250 μM): complete loss of activity

Compound: O=C(O)CN(CC(=O)O)S(=O)(=O)Cc1ccccc1 [Compound 21k, 2,2’-((Benzylsulfonyl)azanediyl)diacetic acid]
- Percent Inhibition against NDM-1 (NDM-1 [3]; compound at 250 μM): complete loss of activity

Compound: O=C(O)CN(CC(=O)O)S(=O)(=O)c1cccs1 [Compound 21l, 2,2’-((Thiophen-2-ylsulfonyl)azanediyl)diacetic acid]
- Percent Inhibition against NDM-1 (NDM-1 [3]; compound at 250 μM): ~ 20%

Compound: O=C(O)CN(CC(=O)O)S(=O)(=O)c1cc2ccccc2s1 [Compound 21m, 2,2’-((Benzo[b]thiophen-2-ylsulfonyl)azanediyl)diacetic acid]
- Percent Inhibition against NDM-1 (NDM-1 [3]; compound at 250 μM): ~ 20%

Compound: O=C(O)CN(CC(=O)O)Cc1cccs1 [Compound 23a, 2,2’-((Thiophen-2-ylmethyl)azanediyl)diacetic acid]
- ∆Tm (NDM-1 [4]): 3.1±0.1 °C

Compound: O=C(O)CN(CC(=O)O)Cc1ccco1 [Compound 23b, 2,2’-((Furan-2-ylmethyl)azanediyl)diacetic acid]
- ∆Tm (NDM-1 [4]): 1.6±0.4 °C

Compound: Cc1ccc(CN(CC(=O)O)CC(=O)O)s1 [Compound 23c, 2,2’-(((5-Methylthiophen-2-yl)methyl)azanediyl)diacetic acid]
- Complex observed by native ESI-MS (NDM-1 [5]): 2Zn: NDM-1:23c
- Complex observed by native ESI-MS (VIM-2): 2Zn: VIM-2:23c

Compound: Cc1ccc(CN(CC(=O)O)CC(=O)O)o1 [Compound 23d, 2,2’-(((5-Methylfuran-2-yl)methyl)azanediyl)diacetic acid]
- ∆Tm (NDM-1 [4]): 3.4±0.2 °C
- Complex observed by native ESI-MS (NDM-1 [5]): 2Zn: NDM-1:23d
- Complex observed by native ESI-MS (VIM-2): 2Zn: VIM-2:23d

Compound: O=C(O)CN(CCc1cccs1)CC(=O)O [Compound 23e, 2,2’-((2-(Thiophen-2-yl)ethyl)azanediyl)diacetic acid]
- ∆Tm (NDM-1 [4]): 1.7±0.2 °C
- Complex observed by native ESI-MS (NDM-1 [5]): 2Zn: NDM-1:23e
- Complex observed by native ESI-MS (VIM-2): 2Zn: VIM-2:23e

Compound: O=C(O)CN(CCc1ccco1)CC(=O)O [Compound 23f, 2,2’-((2-(Furan-2-yl)ethyl)azanediyl)diacetic acid]
- Ki (NDM-1 [3]): 2.6 µM
- fold improvement in inhibitory activity (NDM-1 [3]; ethyl-linker (23f) versus methyl-linker (23b)): 2.5 fold
- ∆Tm (NDM-1 [4]): 1.5±0.1 °C
- Complex observed by native ESI-MS (NDM-1 [5]): 2Zn: NDM-1:23f
- Complex observed by native ESI-MS (VIM-2): 2Zn: VIM-2:23f

Compound: O=C(O)CN(CC(=O)O)Cc1ccc(Br)s1 [Compound 23g, 2,2’-(((5-Bromothiophen-2-yl)methyl)azanediyl)diacetic acid]
- ∆Tm (NDM-1 [4]): 3.0±0.3 °C

Compound: O=C(O)c1cccc(C(=O)O)n1 [DPA, dipicolinic acid, reference compound]
- ∆Tm (NDM-1 [4]): −14.5±0.2 °C
- Complex observed by native ESI-MS (NDM-1 [5]): 0Zn: NDM-1 and 1Zn: NDM-1 and 2Zn: NDM-1
- Complex observed by native ESI-MS (VIM-2): 0Zn: VIM-2:DPA

Compound: O=C(O)CN(CCN(CC(=O)O)CC(=O)O)CC(=O)O [EDTA, reference compound]
- Complex observed by native ESI-MS (NDM-1 [5]): metal free NDM-1

Compound: O=C(O)CNCC(=O)O [IDA, Iminodiacetic acid]
- inhibition at 200 µM (NDM-1 [3]; [7]): 48%
- Kd [6]: 32 µM
